Assays:
Type in all cases: functional
[1] = system: P388; experiment: Antitumor activity against mouse P388 cells xenografted in mouse assessed as increase in life span at 25 mg/kg/day, ip after 9 days; conditions: route intraperitoneal
[2] = system: L1210; experiment: Cytotoxicity against mouse L1210 cells; conditions: for IC50: Mus musculus
[3] = system: P388; experiment: Antitumor activity against mouse P388 cells xenografted in mouse assessed as increase in life span at 100 mg/kg/day, ip after 9 days; conditions: route intraperitoneal
[4] = system: P388; experiment: Antitumor activity against mouse P388 cells xenografted in mouse assessed as increase in life span at 10 mg/kg/day, ip after 9 days; conditions: route intraperitoneal
[5] = system: P388; experiment: Antitumor activity against mouse P388 cells xenografted in mouse assessed as increase in life span at 5 mg/kg/day, ip after 9 days; conditions: route intraperitoneal
[6] = system: L1210; experiment: Inhibition of DNA synthesis in mouse L1210 cells; conditions: read-out: ID50 (the source's name)
[7] = system: L1210; experiment: Inhibition of RNA synthesis in mouse L1210 cells; conditions: read-out: ID50 (the source's name)
[8] = system: L1210; experiment: Antitumor activity against mouse L1210 cells xenografted in mouse assessed as increase in life span at 50 mg/kg/day, ip after 9 days; conditions: route intraperitoneal
[9] = system: B16; experiment: Antitumor activity against mouse B16 cells xenografted in mouse assessed as increase in life span at 50 mg/kg/day, ip after 9 days; conditions: route intraperitoneal
[10] = system: B16; experiment: Antitumor activity against mouse B16 cells xenografted in mouse assessed as increase in life span at 10 mg/kg/day, ip after 9 days; conditions: route intraperitoneal
[11] = system: B16; experiment: Antitumor activity against mouse B16 cells xenografted in mouse assessed as increase in life span at 12 mg/kg/day, ip after 9 days; conditions: route intraperitoneal
[12] = system: P388; experiment: Antitumor activity against mouse P388 cells xenografted in mouse assessed as increase in life span at 70 mg/kg/day, ip after 9 days; conditions: route intraperitoneal
[13] = system: P388; experiment: Antitumor activity against mouse P388 cells xenografted in mouse assessed as increase in life span at 50 mg/kg/day, ip after 9 days; conditions: route intraperitoneal
[14] = system: P388; experiment: Antitumor activity against mouse P388 cells xenografted in mouse assessed as increase in life span at 6.5 mg/kg/day, ip after 9 days; conditions: route intraperitoneal
[15] = system: L1210; experiment: Antitumor activity against mouse L1210 cells xenografted in mouse assessed as increase in life span at 2.5 mg/kg/day, ip after 9 days; conditions: route intraperitoneal
[16] = system: B16; experiment: Antitumor activity against mouse B16 cells xenografted in mouse assessed as increase in life span at 2 to 5 mg/kg/day, ip after 9 days; conditions: route intraperitoneal
[17] = L1210, read-out: ID50 (the source's name)

SMILES | Activity [1] | IC50 ([2]; L1210, read-out: ID50) | IC50 [6] | IC50 [7] | also measured
CCN[C@H]1C[C@](C)(O)[C@H](C(=O)OC)c2cc3c(c(O)c21)C(=O)c1c(O)cc2c(c1C3=O)O[C@@H]1O[C@@]2(C)[C@H](O)[C@@H](N(C)C)[C@@H]1O | 55% | – | – | – | –
CN(C)[C@H]1[C@H](O)[C@@H]2Oc3c(cc(O)c4c3C(=O)c3cc5c(c(O)c3C4=O)CC[C@](C)(O)C5)[C@@](C)(O2)[C@@H]1O | – | – | – | – | ID95 [2]: 1.76 µM; IC50 [2, 17]: 0.94 µM; Activity [3]: 21%
COC(=O)[C@@H]1c2cc3c(c(O)c2[C@@H](OC(C)=O)C[C@]1(C)O)C(=O)c1c(O)cc2c(c1C3=O)O[C@@H]1O[C@@]2(C)[C@H](O)[C@@H](N(C)C)[C@@H]1O | – | – | – | – | Activity [4]: 87%
COC(=O)[C@@H]1c2cc3c(c(O)c2[C@@H](N=[N+]=[N-])C[C@]1(C)O)C(=O)c1c(O)cc2c(c1C3=O)O[C@@H]1O[C@@]2(C)[C@H](O)[C@@H](N(C)C)[C@@H]1O | – | – | – | – | Activity [5]: 33%
COC(=O)[C@@H]1c2cc3c(c(O)c2[C@@H](OC)C[C@]1(C)O)C(=O)c1c(O)cc2c(c1C3=O)O[C@@H]1O[C@@]2(C)[C@H](O)[C@@H](N(C)C)[C@@H]1O | 60% | 0.27 µg/mL | 3.8 µM | 0.5 µM | Activity [8]: 12%; Activity [9]: 84%
COC(=O)[C@@H]1c2cc3c(c(O)c2[C@@H](OC)C[C@@]1(C)O)C(=O)c1c(O)cc2c(c1C3=O)O[C@@H]1O[C@@]2(C)[C@H](O)[C@@H](N(C)C)[C@@H]1O | 98% | 0.13 µg/mL | 7 µM | 7.8 µM | Activity [10]: 35%
CCO[C@H]1C[C@](C)(O)Cc2cc3c(c(O)c21)C(=O)c1c(O)cc2c(c1C3=O)O[C@@H]1O[C@@]2(C)[C@H](O)[C@@H](N(C)C)[C@@H]1O | – | 0.43 µg/mL | 3.2 µM | 0.8 µM | Activity [11]: 34%
COC(=O)c1c(C)ccc2c(O)c3c(cc12)C(=O)c1c2c(cc(O)c1C3=O)[C@@]1(C)O[C@@H](O2)[C@@H](O)[C@H](N(C)C)[C@H]1O [NOGALARENE] | – | – | – | – | ID95 [2]: 0.58 µM; IC50 [2, 17]: 0.24 µM; Activity [12]: 50%
COC(=O)[C@@H]1c2cc3c(c(O)c2[C@@H](N(C)C)C[C@]1(C)O)C(=O)c1c(O)cc2c(c1C3=O)O[C@@H]1O[C@@]2(C)[C@H](O)[C@@H](N(C)C)[C@@H]1O | – | – | – | – | Activity [13]: 54%
CCO[C@H]1C[C@@](C)(O)Cc2cc3c(c(O)c21)C(=O)c1c(O)cc2c(c1C3=O)O[C@@H]1O[C@@]2(C)[C@H](O)[C@@H](N(C)C)[C@@H]1O | – | 0.16 µg/mL | 10.6 µM | 5.2 µM | Activity [14]: 63%; Activity [11]: 25%
CN[C@H]1C[C@](C)(O)[C@H](C(=O)OC)c2cc3c(c(O)c21)C(=O)c1c(O)cc2c(c1C3=O)O[C@@H]1O[C@@]2(C)[C@H](O)[C@@H](N(C)C)[C@@H]1O | 58% | – | – | – | –
CCCO[C@H]1C[C@](C)(O)[C@H](C(=O)OC)c2cc3c(c(O)c21)C(=O)c1c(O)cc2c(c1C3=O)O[C@@H]1O[C@@]2(C)[C@H](O)[C@@H](N(C)C)[C@@H]1O | – | 0.16 µg/mL | – | – | –
CO[C@H]1[C@H](O[C@H]2C[C@](C)(O)Cc3cc4c(c(O)c32)C(=O)c2c(O)cc3c(c2C4=O)O[C@@H]2O[C@@]3(C)[C@H](O)[C@@H](N(C)C)[C@@H]2O)O[C@@H](C)[C@H](OC)[C@@]1(C)OC [DISNOGAMYCIN] | – | 0.18 µg/mL | 3 µM | 0.5 µM | ID95 [2]: 0.27 µg/mL; Activity [5]: 93%; Activity [15]: 27%; Activity [16]: 61%

— ChEMBL document CHEMBL1158657, “Improved antitumor activity by modification of nogalamycin” (1979)
